# Active and inactive are the calls of the source.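 Rule for the calls: active = growth-inhibition EC50 no more than tenfold above the top tested dose; inconclusive = flat fit between 30% and 70% inhibition, or unreliable fit; inactive = EC50 more than tenfold above the top tested dose.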
# Test system: E. coli NEB5alpha growth, BacTiter-Glo luminescence, 4 h
# Test: antibacterial activity against E. coli NEB5alpha – luminescence, counter-screen for MEX-5/POS-1 RNA-binding inhibitor project, dose response (AID 1959);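 note: pUC19-transformed ampicillin-resistant cells grown in LB with ampicillin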
row,SMILES,EC50
1,COc1ccccc1Oc1cn[nH]c1-c1ccc(OCC(=O)NN)cc1O,> 11 µM (inactive)
2,COc1ccc(C2C(C(=O)c3ccco3)=C(O)C(=O)N2c2nnc(C)s2)cc1OC (stereo not drawn),> 11 µM (inactive)
3,CN1C(=O)S/C(=C/c2cccn2-c2cccc(C(=O)O)c2)C1=O,> 11 µM (inactive)
4,COc1ncnc2c1NC1=C(S2)C(=NCCC(=O)O)CC(C)(C)C1,> 11 µM (inactive)
5,O=c1[nH]c(=O)n(-c2cccc(Cl)c2)c(O)c1/C=N/c1ccccn1,> 11 µM (inactive)
6,NS(=O)(=O)c1ccc(NC(=O)COC(=O)c2cn(-c3ccccc3)nc2-c2ccc(F)cc2)cc1,> 11 µM (inactive)
7,O=C(O)CCCCCn1c(SCC(=O)c2ccc(O)c(O)c2)nc2ccsc2c1=O,> 11 µM (inactive)
8,N#CC(C#N)=Cc1cccn1-c1ccc(C(=O)O)cc1,> 11 µM (inactive)
9,CCN(CC)c1ccc(N=Cc2ccc(N(CC)CC)cc2O)cc1,> 11 µM (inactive)
10,Cc1nc(N2CCN(Cc3ccccc3)CC2)c(C#N)c2c1COC(C)(C)C2,> 11 µM (inactive)
11,CO[C@H]1O[C@H](CBr)[C@@H](OC(=O)c2ccccc2)[C@H](O)[C@H]1O,> 11 µM (inactive)
12,O=C1c2ccccc2C(=O)c2[nH]cnc21,> 11 µM (inactive)
13,COc1ccc(N2C(=O)/C(=C/c3ccc(N(C)C)o3)C(=O)NC2=S)cc1,> 11 µM (inactive)
14,CCCn1nc(C(=O)Nc2ccc(S(=O)(=O)Nc3nccs3)cc2)c2ccccc2c1=O,> 11 µM (inactive)
15,O=C(O)C1Nc2c(C(F)(F)F)ccc(Cl)c2C2C=CCC12 (stereo not drawn),> 11 µM (inactive)
16,CC1(OC(=O)c2cnc3ccccc3n2)C(=O)C=C2C=C(C3CC3)OC=C2C1=O (stereo not drawn),> 11 µM (inactive)
17,Cc1ccccc1NC(=O)/C(C#N)=C\c1cc(C)n(-c2ccc(C(=O)O)cc2)c1C,> 11 µM (inactive)
18,COc1cccc(N2C(=O)NC(=O)/C(=C/c3ccc([N+](=O)[O-])s3)C2=O)c1,> 11 µM (inactive)
19,Cc1cc(/C=N/n2cnnc2)c(C)n1-c1ccc(C(=O)O)cc1,> 11 µM (inactive)
20,O=C(O)CCC(=O)N1N=C(c2cccs2)CC1c1cn(-c2ccccc2)nc1-c1ccccc1 (stereo not drawn),> 11 µM (inactive)
21,N=c1c(C(=O)NC2CCCCC2)cc2c(=O)n3ccccc3nc2n1Cc1ccc(F)cc1,> 11 µM (inactive)
22,Cc1noc(C)c1S(=O)(=O)NC1CCN(Cc2ccccc2)CC1,> 11 µM (inactive)
23,CC1(OC(=O)c2cnc3ccccc3n2)C(=O)C=C2C=C(c3ccc(C#N)cc3)OC=C2C1=O (stereo not drawn),> 11 µM (inactive)
24,COc1c(/C=C2/C(=O)NC(=O)N(C)C2=O)c(CCN(C)C(=O)c2ccccc2)cc2c1OCO2,> 11 µM (inactive)

row,SMILES,EC50
1,COC(=O)c1[nH]c2cc(OC)c(OC)cc2c1/C=N/Nc1ccccc1,> 11 µM (inactive)
2,CC1CCc2nn(CC(=O)NCCN3CCCCC3C)cc2C1 (stereo not drawn),> 11 µM (inactive)
3,O=C1CCC/C1=c1\s/c(=C\c2cccnc2)c(=O)n1-c1ccccc1,> 11 µM (inactive)
4,O=C1NC(=O)C(=Cc2ccc(-c3ccc(S(=O)(=O)N4CCOCC4)cc3)o2)C(=O)N1,> 11 µM (inactive)
5,O=c1[nH]c(CN2CCc3ccccc3C2)nc2ccccc12,> 11 µM (inactive)
6,Cc1onc(-c2c(F)cccc2Cl)c1C(=O)N1CCCc2ccccc21,> 11 µM (inactive)
7,CC(=O)c1ccc(NC(=O)CSc2nnc(-c3ccncc3)o2)cc1,> 11 µM (inactive)
8,O=C(N/N=C\C1C(=O)NC(=S)N(c2ccccc2)C1=O)c1ccc(O)cc1 (stereo not drawn),> 11 µM (inactive)
9,N#Cc1c(C#N)c(-c2ccccc2)n(-c2ccc(C(=O)O)cc2)c1N,> 11 µM (inactive)
10,Cc1nn(-c2ccccc2)c(N2CCCC2)c1/C=N/NC(=O)c1cc(-c2cccnc2)nc2ccccc12,> 11 µM (inactive)
11,COC(=O)c1cc(-n2cccc2)ccc1N1CCOCC1,> 11 µM (inactive)
12,COc1ccc(C2c3cc(OC)c(OC)cc3CCN2S(C)(=O)=O)cc1OC (stereo not drawn),> 11 µM (inactive)
13,Cc1cc(C=C2C(=O)c3ccccc3C2=O)c(C)n1-c1ccc(C(=O)O)cc1,> 11 µM (inactive)
14,COC(=O)CCCC1=CC2=CC(=O)C(C)(O)C(=O)C2=CO1 (stereo not drawn),> 11 µM (inactive)
15,Cc1nc2ccccc2c(=O)n1/N=C/c1ccc(O)c(O)c1O,> 11 µM (inactive)
16,Cc1ccc2nc(-c3ccc(O)c(O)c3)cn2c1,> 11 µM (inactive)
17,CCC1=NN2C(=N)/C(=C\c3ccc(SCc4ccco4)o3)C(=O)N=C2S1,> 11 µM (inactive)
18,CCOC(=O)C1=C(O)/C(=C/c2cn(CC(=O)N3CCCC3)c3ccccc23)SC1=Nc1ccccc1,> 11 µM (inactive)
19,CCCNC(=O)c1ccc2c(=O)c(O)c(-c3ccc(F)cc3)[nH]c2c1,> 11 µM (inactive)
20,COC(=O)c1ccc(C23CC4(C2)[C@H](CN(Cc2ccc(C(F)(F)F)cc2)[C@@H]4c2ccccc2)C3c2ccccc2)cc1 (stereo partly drawn),> 11 µM (inactive)
21,Cc1ccccc1-n1c(O)c(/C=N/NC(=O)c2ccccc2O)c(=O)[nH]c1=S,> 11 µM (inactive)
22,Nc1ccc(Nc2ccccc2)c(S(=O)(=O)O)c1,> 11 µM (inactive)
23,CC1(C)CC(=O)C2=C(C1)OC(N)=C(C#N)C21C(=O)N2CCCc3cccc1c32 (stereo not drawn),> 11 µM (inactive)
24,Cc1cc(/C=C(\C#N)C(=O)Nc2ccccc2)c(C)n1-c1ccc(C(=O)O)cc1,> 11 µM (inactive)

row,SMILES,EC50
1,Oc1ccc(-c2csc(Nc3ccccn3)n2)cc1O,> 11 µM (inactive)
2,CC1(CCl)N([O-])C2=C(CCCC2)[N+]1=O (stereo not drawn),> 11 µM (inactive)
3,C=CCN1C(=O)S/C(=C\c2ccc(N3CCOCC3)cc2C)C1=O,> 11 µM (inactive)
4,COc1ccccc1N1C(=O)C2C(C(=O)c3ccccc3)=NN(c3ccc(C)cc3)C2C1=O (stereo not drawn),> 11 µM (inactive)
5,CC(C)(C)OC(=O)NCCCC1=CC2=CC(=O)C(C)(OC(=O)c3ccc(Cl)nc3)C(=O)C2=CO1 (stereo not drawn),> 11 µM (inactive)
6,CCN(CC)c1ccc2cc(NC(=O)CCC(=O)O)c(=O)oc2c1,> 11 µM (inactive)
7,COc1cc(C2C(C#N)=C(N)Oc3n[nH]c(-c4cccnc4)c32)cc(Br)c1O (stereo not drawn),> 11 µM (inactive)
8,Cc1cccc(NC(=O)c2sc3nc(-c4ccccc4)cn3c2C)n1,> 11 µM (inactive)
9,Cc1c(C=N)c(O)n(C)c(=O)c1C#N,> 11 µM (inactive)
10,O=C(NN1C(=O)c2ccccc2NC1c1ccccn1)c1ccc(Br)cc1 (stereo not drawn),> 11 µM (inactive)
11,COc1cccc(C2C(C(=O)c3cc4cccc(OC)c4o3)=C(O)C(=O)N2c2cc(C)on2)c1OC (stereo not drawn),> 11 µM (inactive)
12,Cc1cccn2c(=O)c3cc(C(=O)NCc4ccco4)c(=N)n(C(C)C)c3nc12,> 11 µM (inactive)
13,CCOc1cccc(=O)c2c(C)n(-c3ccc(C(=O)O)cc3)c(C)c12,> 11 µM (inactive)
14,O=C(Nc1ccnn1C1CCN(CC2CC=CCC2)CC1)c1ccccc1 (stereo not drawn),> 11 µM (inactive)
15,C=CCN1C(=O)/C(=C2/Sc3ccc(OC)cc3N2CC)SC1=S,> 11 µM (inactive)
16,O=C(O)c1cc(O)c2c(c1)C(=O)c1cccc(O)c1C2=O,> 11 µM (inactive)
17,Cc1[nH][nH]c(=O)c1C(c1ccc(-c2ccccc2C(=O)O)o1)c1c(C)[nH][nH]c1=O,> 11 µM (inactive)
18,COC(=O)[C@@]1(C#N)[C@@H]2C=CC(C(C)=O)=CN2[C@@H](C(N)=O)[C@@H]1c1ccc(F)cc1,> 11 µM (inactive)
19,Cc1c(N=Cc2c(O)n(Cc3ccco3)c(=O)[nH]c2=O)c(=O)n(-c2ccccc2)n1C,> 11 µM (inactive)
20,CCOC(=O)COn1c(=O)c(-c2cc3ccccc3o2)[n+]([O-])c2ccccc21,> 11 µM (inactive)
21,C/C(O)=c1/ccc2cccc3nc(C)nc1c23,> 11 µM (inactive)
22,CN1c2ccc(C=O)c3c(C=O)ccc(c23)N(C)C1(C)C,> 11 µM (inactive)
23,N#CC1=C(N)OC2=C(C(=O)CCC2)C12C(=O)N1CCCc3cccc2c31 (stereo not drawn),> 11 µM (inactive)
24,Cn1cccc1/C=C1\C(=O)NC(=O)N(Cc2ccco2)C1=O,> 11 µM (inactive)

row,SMILES,EC50
1,Cc1ccc(N2C(=O)NC(=O)/C(=C\c3cc(C)n(-c4cc(C(=O)O)cc(C(=O)O)c4)c3C)C2=O)cc1,> 11 µM (inactive)
2,COc1cc2c(cc1OC)C(c1ccc(-c3ccc(Cl)cc3Cl)o1)=NCC2,> 11 µM (inactive)
3,CCOc1cccc(N2C(=O)/C(=C/c3ccco3)C(=O)NC2=S)c1,> 11 µM (inactive)
4,C=CCn1c(O)c(C=Nc2ccc(N(CC)CC)cc2)c(=O)[nH]c1=O,> 11 µM (inactive)
5,Cc1cc(NS(=O)(=O)c2ccc(Nc3nc(-c4sc(N)nc4C)cs3)cc2)no1,> 11 µM (inactive)
6,CC(C)Sc1nsc2nc(=O)c(/C=C3\C=Nc4ccccc43)c(N)n12,> 11 µM (inactive)
7,CC(=O)C1=C(c2ccccc2)NC(=O)NC1c1ccc(O)c(O)c1 (stereo not drawn),> 11 µM (inactive)
8,O=S(=O)(c1cccc(-c2csc(-c3cccnc3)n2)c1)N1CCOCC1,> 11 µM (inactive)
9,CN(C)CCN(C)Cc1c2ccccc2c(CN(C)CCN(C)C)c2ccccc12,> 11 µM (inactive)
10,NS(=O)(=O)c1ccc(N=Nc2c[nH]c(=O)c(O)c2)cc1,> 11 µM (inactive)
11,Cc1ccc(NC(=O)CSc2nccc(=O)[nH]2)c(S(=O)(=O)N2CCOCC2)c1,> 11 µM (inactive)
12,Brc1cc2c(cc1C1Nc3ccccc3C3C=CCC31)OCO2 (stereo not drawn),> 11 µM (inactive)
13,CN1CCN(C2=C(Cl)C(=O)C(c3cnc(N4CCCCC4)s3)=C(Cl)C2=O)CC1,> 11 µM (inactive)
14,Cc1ccc2nc3sc(C(=O)N4CCCc5ccccc54)c(N)c3cc2c1,> 11 µM (inactive)
15,C[n+]1c(-c2ccccc2)c2cc(N)ccc2c2ccc(N)cc21,> 11 µM (inactive)
16,CCC(NC(C)C)C(O)c1ccc(O)c(O)c1 (stereo not drawn),> 11 µM (inactive)
17,NC(=O)Cn1cc(C=C2C(=O)NC(=O)NC2=O)c2ccccc21,> 11 µM (inactive)
18,COC(=O)c1ccc(-n2c(C)cc(C(=O)CCl)c2C)cc1,> 11 µM (inactive)
19,Cc1ccc(/C=C(\C#N)C(=O)Nc2c(C)cccc2C)s1,> 11 µM (inactive)
20,CCOc1ccc(N2C(=O)/C(=C/c3ccc(C)o3)C(=O)NC2=S)cc1,> 11 µM (inactive)
21,CCCCC1=CC2=CC(=O)C(C)(O)C(=O)C2=CO1 (stereo not drawn),> 11 µM (inactive)
